# Assay results published in US8466156B2, “2-phenyl-4-cyclopropyl-pyrimidine derivatives” (Actelion Pharmaceuticals Ltd., priority 2008, dated 2013).
# Target: T1, human P2Y12 receptor (Homo sapiens, UniProt Q9H244)
# T1 construct: expressed in transfected cells; host or cells: Chinese Hamster Ovary (CHO) cells
# Experiment: P2Y12 receptor binding assay (displacement of tritium-labeled 2-methyl-S-ADP on CHO cells)
# Settings: CHO cells with recombinant expression of the human P2Y12 receptor, 2 hours at RT
# Protocol: P2Y12 Receptor Binding Assay
# Chinese Hamster Ovary (CHO) cells with recombinant expression of the human P2Y12 receptor were cultured in 24 well cell-culture plates. Cells were washed three times with binding buffer (50 mM Tris pH 7.4, 100 mM NaCl, 1 mM EDTA, 0.5% BSA). The cells were then incubated with 0.5 ml per well binding buffer containing tritium-labeled 2-methyl-thio-adenosine 5′-diphosphate (2-methyl-S-ADP) (between 100'000 and 300'000 dpm per well) and various concentrations of test compounds. After incubation at RT for 2 hours, cells were washed three times with binding buffer. Then, cells were solubilized by addition of 0.5 ml solubilization buffer (SDS, NaOH, EDTA). The content of each well was then transferred into beta-counter vials and 2.0 ml of Ultima Gold Scintillation liquid was added.
# [1] = comparison with reference compounds of WO 2006/114774
# T1 sequence (Q9H244 whole entry): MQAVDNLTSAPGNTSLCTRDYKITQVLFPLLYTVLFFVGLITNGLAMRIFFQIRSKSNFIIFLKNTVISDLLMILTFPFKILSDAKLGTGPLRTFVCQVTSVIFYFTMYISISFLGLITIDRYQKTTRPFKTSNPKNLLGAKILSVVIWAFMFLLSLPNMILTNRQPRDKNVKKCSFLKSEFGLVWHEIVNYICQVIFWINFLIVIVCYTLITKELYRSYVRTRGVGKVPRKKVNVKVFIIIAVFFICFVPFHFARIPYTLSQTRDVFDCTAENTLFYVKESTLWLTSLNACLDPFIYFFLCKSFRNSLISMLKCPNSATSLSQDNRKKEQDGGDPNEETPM
Compound,IC50 (Example compounds table) [nM],IC50 [1] [nM]
"CCCCOC(=O)N1CCN(C(=O)[C@H](CCC(=O)O)NC(=O)c2cc([C@@H]3C[C@H]3COC)nc(-c3ccccc3)n2)CC1 (mixture of isomers) [Example 2, 4-((S)-4-carboxy-2-{[6-(trans-2-methoxymethyl-cyclopropyl)-2-phenyl-pyrimidine-4-carbonyl]-amino}-butyryl)-piperazine-1-carboxylic acid butyl ester]",3,
"CCCCOC(=O)N1CCN(C(=O)[C@H](CCC(=O)O)NC(=O)c2cc([C@@H]3C[C@@H]3COC)nc(-c3ccccc3)n2)CC1 (mixture of isomers) [Example 6, 4-((S)-4-carboxy-2-{[6-(cis-2-methoxymethyl-cyclopropyl)-2-phenyl-pyrimidine-4-carbonyl]-amino}-butyryl)-piperazine-1-carboxylic acid butyl ester]",9,
"CCCCOC(=O)N1CCN(C(=O)[C@H](CCC(=O)O)NC(=O)c2cc(C3CC3)nc(-c3ccccc3)n2)CC1 [Example 1, 4-{(S)-4-carboxy-2-[(6-cyclopropyl-2-phenyl-pyrimidine-4-carbonyl)-amino]-butyryl}-piperazine-1-carboxylic acid butyl ester]",6,
"CCCCOC(=O)N1CCN(C(=O)[C@H](CCC(=O)O)NC(=O)c2cc([C@H]3C[C@@H]3COC)nc(-c3ccccc3)n2)CC1 [Example 3, 4-((S)-4-carboxy-2-{[6-((1S,2S)-2-methoxymethyl-cyclopropyl)-2-phenyl-pyrimidine-4-carbonyl]-amino}-butyryl)-piperazine-1-carboxylic acid butyl ester]",5,
"CCCCOC(=O)N1CCN(C(=O)[C@H](CCC(=O)O)NC(=O)c2cc([C@H]3C[C@@H]3CO)nc(-c3ccccc3)n2)CC1 [Example 4, 4-((S)-4-carboxy-2-{[6-((1S,2S)-2-hydroxymethyl-cyclopropyl)-2-phenyl-pyrimidine-4-carbonyl]-amino}-butyryl)-piperazine-1-carboxylic acid butyl ester]",4,
"CCCCOC(=O)N1CCN(C(=O)[C@H](CCC(=O)O)NC(=O)c2cc([C@H]3C[C@@H]3COC)nc(-c3ccc(F)cc3)n2)CC1 [Example 5, 4-((S)-4-carboxy-2-{[2-(4-fluoro-phenyl)-6-((1S,2S)-2-methoxymethyl-cyclopropyl)-pyrimidine-4-carbonyl]-amino}-butyryl)-piperazine-1-carboxylic acid butyl ester]",2,
"CCOC(=O)N1CCN(C(=O)[C@H](CCC(=O)O)NC(=O)c2cc(C3CC3)nc(-c3ccccc3)n2)CC1 [Example 90 of WO 2006/114774, reference compound]",,43
"CCOC(=O)N1CCN(C(=O)[C@H](CCC(=O)O)NC(=O)c2cc(C3CC3CO)nc(-c3ccccc3)n2)CC1 (some centres unmarked) [Example 500 of WO 2006/114774, reference compound]",,23
